IC50 data for 18 molecules are collected here from US11180474B2 (BRISTOL-MYERS SQUIBB COMPANY, priority 2016, dated 2021).

The target of assay [1] is T1, human TLR8 (Homo sapiens, UniProt Q9NR97).
T1 construct: host or cells: HEK-Blue cells
T1 sequence (Q9NR97 27-1041): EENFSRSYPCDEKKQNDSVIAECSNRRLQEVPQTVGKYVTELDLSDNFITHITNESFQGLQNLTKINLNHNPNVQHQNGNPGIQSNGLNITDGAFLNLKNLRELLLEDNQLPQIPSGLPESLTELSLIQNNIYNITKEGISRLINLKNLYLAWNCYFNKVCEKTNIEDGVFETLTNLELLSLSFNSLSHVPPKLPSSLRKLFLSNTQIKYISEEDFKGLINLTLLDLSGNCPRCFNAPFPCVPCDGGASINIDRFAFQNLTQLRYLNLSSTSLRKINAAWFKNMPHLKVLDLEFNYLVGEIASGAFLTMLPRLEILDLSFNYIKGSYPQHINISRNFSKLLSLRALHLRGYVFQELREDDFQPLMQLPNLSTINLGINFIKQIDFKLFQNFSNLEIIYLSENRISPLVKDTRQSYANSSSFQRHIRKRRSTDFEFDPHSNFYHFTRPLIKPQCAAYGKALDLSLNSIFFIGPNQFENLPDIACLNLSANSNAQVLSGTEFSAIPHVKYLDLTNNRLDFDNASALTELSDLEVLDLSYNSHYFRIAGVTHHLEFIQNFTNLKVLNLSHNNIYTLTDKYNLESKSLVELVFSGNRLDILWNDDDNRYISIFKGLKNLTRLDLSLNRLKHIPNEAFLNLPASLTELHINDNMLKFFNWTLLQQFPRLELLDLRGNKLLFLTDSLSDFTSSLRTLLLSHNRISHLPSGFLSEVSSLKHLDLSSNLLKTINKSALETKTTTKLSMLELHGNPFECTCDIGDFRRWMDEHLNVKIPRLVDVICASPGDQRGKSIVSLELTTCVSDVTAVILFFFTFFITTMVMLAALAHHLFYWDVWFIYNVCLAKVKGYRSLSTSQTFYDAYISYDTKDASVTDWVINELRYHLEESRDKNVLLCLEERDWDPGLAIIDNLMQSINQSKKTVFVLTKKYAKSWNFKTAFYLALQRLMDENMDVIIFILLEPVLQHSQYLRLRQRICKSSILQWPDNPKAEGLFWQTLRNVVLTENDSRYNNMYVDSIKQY
Nature of the assay: TLR8 inhibition reporter assay (HEK-Blue cells, SEAP reporter, R848 stimulation). The assay is classed as cell-based. The conditions noted are these: HEK-Blue cells overexpressing human TLR8, R848 15.9 μM. The method, then: TLR7/8/9 Inhibition Reporter Assays
Briefly, cells are seeded into Greiner 384 well plates (15000 cells per well for TLR7, 20,000 for TLR8 and 25,000 for TLR9) and then treated with test compounds in DMSO to yield a final dose response concentration range of 0.05 nM-50 μM. […] After a 22 hour incubation at 37° C., 5% CO2, SEAP levels are determined with the addition of HEK-Blue™ Detection reagent (Invivogen), a cell culture medium that allows for detection of SEAP, according to manufacturer's specifications. The percent inhibition is determined as the % reduction in the HEK-Blue signal present in wells treated with agonist plus DMSO alone compared to wells treated with a known inhibitor.
For orientation: A reporter such as luciferase makes a cellular process visible.

Assay [2] has as its target T2, human TLR7 (Homo sapiens, UniProt Q9NYK1).
T2 construct: host or cells: HEK-Blue cells
T2 sequence (Q9NYK1 27-1049): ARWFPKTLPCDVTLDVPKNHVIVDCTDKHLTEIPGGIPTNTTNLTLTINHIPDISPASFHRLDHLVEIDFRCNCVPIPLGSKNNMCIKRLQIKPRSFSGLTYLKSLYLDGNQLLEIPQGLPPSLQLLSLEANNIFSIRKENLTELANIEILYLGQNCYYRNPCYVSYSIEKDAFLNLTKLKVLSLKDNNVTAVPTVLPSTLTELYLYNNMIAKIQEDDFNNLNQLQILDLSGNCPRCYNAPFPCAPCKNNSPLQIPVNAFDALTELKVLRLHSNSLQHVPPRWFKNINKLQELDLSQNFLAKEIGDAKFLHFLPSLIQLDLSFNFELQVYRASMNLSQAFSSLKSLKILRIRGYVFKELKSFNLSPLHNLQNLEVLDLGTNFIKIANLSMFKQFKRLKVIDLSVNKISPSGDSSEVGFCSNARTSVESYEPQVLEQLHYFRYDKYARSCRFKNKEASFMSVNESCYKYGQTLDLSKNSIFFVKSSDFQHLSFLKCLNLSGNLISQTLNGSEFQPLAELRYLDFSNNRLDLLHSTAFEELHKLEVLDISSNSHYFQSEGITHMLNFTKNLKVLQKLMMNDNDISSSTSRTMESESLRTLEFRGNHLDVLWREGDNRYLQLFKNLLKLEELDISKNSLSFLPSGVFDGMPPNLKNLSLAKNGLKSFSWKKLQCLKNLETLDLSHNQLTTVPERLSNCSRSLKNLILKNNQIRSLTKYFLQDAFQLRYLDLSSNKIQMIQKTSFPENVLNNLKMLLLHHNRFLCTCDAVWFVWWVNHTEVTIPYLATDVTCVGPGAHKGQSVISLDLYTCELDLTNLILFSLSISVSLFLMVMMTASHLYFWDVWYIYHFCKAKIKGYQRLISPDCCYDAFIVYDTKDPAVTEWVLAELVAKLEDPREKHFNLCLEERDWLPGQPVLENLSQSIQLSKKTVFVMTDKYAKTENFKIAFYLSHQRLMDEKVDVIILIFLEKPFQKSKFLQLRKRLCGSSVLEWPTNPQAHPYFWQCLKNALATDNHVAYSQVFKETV
Nature of the assay: TLR7 inhibition reporter assay (HEK-Blue cells, SEAP reporter, gardiquimod stimulation). The conditions noted are these: HEK-Blue cells overexpressing human TLR7, gardiquimod 7.5 μM. The assay is classed as cell-based. An outline of the steps: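 22 h, 37° C, 5% CO2 incubation; compounds 0.05 nM-50 μM final; TLR7 cells 15000/well, TLR8 20,000/well. Readout: SEAP via HEK-Blue Detection medium. % inhibition = signal reduction versus agonist + DMSO wells, referenced to known inhibitor.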

Bounds are passed on as bounds.

Consider `CCc1c(-c2ccc(OC)c(OC)c2)[nH]c2ccc(C3CCN(C(=O)CNc4nccs4)CC3)cc12` [Example 177, 1-(4-(2-(3,4-dimethoxyphenyl)-3-ethyl-1H-indol-5-yl)piperidin-1-yl)-2-(thiazol-2-ylamino)ethanone], for which the IC50 in assay [1] amounted to 36 nM; in assay [2] it was 121 nM.

Regarding `CCc1c(-c2ccc(OC)c(OC)c2)[nH]c2ccc(C3CCN(CC(C)C(F)(F)F)CC3)cc12` (stereo not drawn) [Example 180, 2-(3,4-dimethoxyphenyl)-3-ethyl-5-(1-(3,3,3-trifluoro-2-methylpropyl)piperidin-4-yl)-1H-indole], the IC50 in assay [1] was 776 nM; in assay [2], at least 50000 nM.

On to `COc1ccc(-c2[nH]c3ccc(C4CCN(C5CCN(CC(C)C)CC5)CC4)cc3c2C(C)C)cc1OC` [Example 199, 2-(3,4-dimethoxyphenyl)-5-(1′-isobutyl-[1,4′-bipiperidin]-4-yl)-3-isopropyl-1H-indole], for which the IC50 worked out at 19 nM in assay [1] and 120 nM in assay [2].

On to `CCc1c(-c2ccc(OC)c(OC)c2)[nH]c2ccc(C3CCN(C(=O)CNCCO)CC3)cc12` [Example 159, 1-(4-(2-(3,4-dimethoxyphenyl)-3-ethyl-1H-indol-5-yl)piperidin-1-yl)-2-((2-hydroxyethyl)amino) ethan-1-one], for which the IC50 came to 26 nM in assay [1] and 42 nM in assay [2].

With `CCc1c(-c2ccc(OC)c(OC)c2)[nH]c2ccc(C3CCN(C4CCN(Cc5ccsc5)CC4)CC3)cc12` [Example 142, 2-(3,4-dimethoxyphenyl)-3-ethyl-5-(1′-(thiophen-3-ylmethyl)-[1,4′-bipiperidin]-4-yl)-1H-indole], the IC50 in assay [1] was 101 nM; in assay [2], 898 nM.

With `COc1ccc(-c2[nH]c3cc(C)c(C4CCN(C5CCN(C(C)C)CC5)CC4)cc3c2C)cc1OC` [Example 115, 2-(3,4-dimethoxyphenyl)-5-(1′-isopropyl-[1,4′-bipiperidin]-4-yl)-3,6-dimethyl-1H-indole-di-trifluoroacetic acid], the IC50 in assay [1] amounted to 2230 nM; in assay [2], 132 nM.

Regarding `CCc1c(-c2ccc(OC)c(OC)c2)[nH]c2c(F)cc(C3CCN(C4CCN(CC(C)C)CC4)CC3)cc12` [Example 190, 2-(3,4-dimethoxyphenyl)-3-ethyl-7-fluoro-5-(1′-isobutyl-[1,4′-bipiperidin]-4-yl)-1H-indole], the IC50 came out at 1760 nM in assay [1] and 588 nM in assay [2].

In the case of `CNCCN1CCC(c2ccc3[nH]c(-c4ccc(OC)c(OC)c4)c(CC(C)C)c3c2)CC1` [Example 116, trifluoroacetic acid], the results for the IC50 in assay [1] and in assay [2] were 95 nM and 1290 nM, respectively.

In the case of `CCc1c(-c2ccc(OC)c(OC)c2)[nH]c2ccc(C3CCN(C(=O)c4ccncc4)CC3)cc12` [Example 183, (4-(2-(3,4-dimethoxyphenyl)-3-ethyl-1H-indol-5-yl)piperidin-1-yl)(pyridin-4-yl) methanone], the values for the IC50 in assay [1] and in assay [2] were 838 nM and 533 nM, respectively.

Take `COc1ccc(-c2[nH]c3ccc(C4CCN(C5CCN(CC(C)C)CC5)CC4)cc3c2C)cc1OC` [Example 6, 2-(3,4-dimethoxyphenyl)-5-(1′-isobutyl-[1,4′-bipiperidin]-4-yl)-3-methyl-1H-indole]: the IC50 in assay [1] is 247 nM; in assay [2] it was 1230 nM.

Regarding `CCc1c(-c2ccc(OC)c(OC)c2)[nH]c2ccc(C3CCN(C4CCN(C)CC4)CC3)cc12` [Example 150, 2-(3,4-dimethoxyphenyl)-3-ethyl-5-(1′-methyl-[1,4′-bipiperidin]-4-yl)-1H-indole], the IC50 in assay [1] was 1360 nM; in assay [2], 7980 nM.

`CCc1c(-c2ccc(OC)c(OC)c2)[nH]c2ccc(C3CCN(C4CCN(Cc5cc(C)n[nH]5)CC4)CC3)cc12` [Example 131, 2-(3,4-dimethoxyphenyl)-3-ethyl-5-(1′-((3-methyl-1H-pyrazol-5-yl)methyl)-[1,4′-bipiperidin]-4-yl)-1H-indole]: the IC50 was found to be 56 nM in assay [1] and 371 nM in assay [2].

For `CCN(CC)C(=O)CCN(C)CC(=O)N1CCC(c2ccc3[nH]c(-c4ccc(OC)c(OC)c4)c(C(C)C)c3c2)CC1` [Example 204, 3-((2-(4-(2-(3,4-dimethoxyphenyl)-3-isopropyl-1H-indol-5-yl)piperidin-1-yl)-2-oxoethyl)(methyl)amino)-N,N-diethylpropanamide], the IC50 came out at 112 nM in assay [1] and 160 nM in assay [2].

Regarding `CCc1c(-c2ccc(OC)c(OC)c2)[nH]c2ccc(C3CCN(C(=O)C4(C)CCNCC4)CC3)cc12` [Example 187, (4-(2-(3,4-dimethoxyphenyl)-3-ethyl-1H-indol-5-yl)piperidin-1-yl)(4-methylpiperidin-4-yl)methanone], the values for the IC50 in assay [1] and in assay [2] were 162 nM and 167 nM, respectively.

For `CCc1c(-c2ccc(OC)c(OC)c2)[nH]c2ccc(C3CCN(C4CCN(Cc5c(C)noc5C)CC4)CC3)cc12` [Example 138, 4-((4-(2-(3,4-dimethoxyphenyl)-3-ethyl-1H-indol-5-yl)-[1,4′-bipiperidin]-1′-yl)methyl)-3,5-dimethylisoxazole], the IC50 in assay [1] amounted to 268 nM; in assay [2], 3510 nM.

`CCc1c(-c2ccc(OC)c(OC)c2)[nH]c2ccc(C3CCN(C4CCN(Cc5cc6ccccc6n5C)CC4)CC3)cc12` [Example 137, 2-(3,4-dimethoxyphenyl)-3-ethyl-5-(1′-((1-methyl-1H-indol-2-yl)methyl)-[1,4′-bipiperidin]-4-yl)-1H-indole]: the IC50 in assay [1] was determined as 1290 nM; in assay [2] it was 4690 nM.

Take `COc1ccc(-c2[nH]c3ccc(C4CCN(C5CCN(C6CCCC6)CC5)CC4)cc3c2C(C)C)cc1OC` [Example 202, 5-(1′-cyclopentyl-[1,4′-bipiperidin]-4-yl)-2-(3,4-dimethoxyphenyl)-3-isopropyl-1H-indole]: the half-maximal inhibitory concentration (IC50) in assay [1] came to 13 nM; in assay [2] it was 155 nM.

With `CCc1c(-c2ccc(OC)c(OC)c2)[nH]c2cc(OC)c(C3CCN(C4CCN(C(C)C)CC4)CC3)cc12` [Example 192, 2-(3,4-dimethoxyphenyl)-3-ethyl-5-(1′-isopropyl-[1,4′-bipiperidin]-4-yl)-6-methoxy-1H-indole], the figures for the IC50 in assay [1] and in assay [2] were 194 nM and 171 nM, respectively.

As usually defined, the IC50 is the concentration that inhibits the measured activity by half. Low readings indicate greater potency, high ones weaker potency.
